# In ChEMBL document CHEMBL5512671, “Structure-Based Optimization of Novel Sterol 24-C-Methyltransferase Inhibitors for the Treatment of Candida albicans Infections” (J Med Chem, 2024):
# Activity calls are given as the source filed them. The rule behind the calls is not given here.
# How the values were obtained:
# [1] = tested on: Candida albicans; test: Antifungal activity against Candida albicans SC5314 infected in Balb/C mouse candidiasis model assessed as appearance of inflammatory infiltrates at 0.5 % administered topically and measured after 72 hrs in presence of terbinafine by H and E staining based analysis; format: functional, organism-based
# [2] = tested on: Candida albicans; test: Synergistic antifungal activity against Candida albicans SC5314 assessed as fractional inhibitory concentration index incubated for 24 hrs in presence of tridemorph by broth microdilution checkerboard assay; format: functional
# [3] = Cytotoxicity against human HUVEC cells incubated for 48 hrs by CCK-8 method; format: toxicity, cell-based
# [4] = tested on: Candida parapsilosis; test: Antifungal activity against Candida parapsilosis CP1 assessed as inhibition of fungal growth incubated for 24 hrs by CLSI protocol based broth microdilution method; format: functional; conditions: Lodderomyces parapsilosis
# [5] = Cytotoxicity against human BEAS-2B cells incubated for 48 hrs by CCK-8 method; format: toxicity, cell-based
# [6] = tested on: Candida albicans; test: Antifungal activity against Candida albicans SC5314 assessed as inhibition of fungal growth incubated for 24 hrs by CLSI protocol based broth microdilution method; format: functional
# [7] = molecular target: T1, Sterol 24-C-methyltransferase (Candida albicans (strain SC5314 / ATCC MYA-2876) (Yeast)) (UniProt O74198); test: Thermal stabilization of recombinant Candida albicans SC5314 Erg6 transfected in Escherichia coli BL21 (DE3) at 0.5 ug/ml incubated for 30 mins at 43 to 57 degreeC by Western blot analysis; conditions: dose 0.5 µg/ml
# T1 sequence (whole entry): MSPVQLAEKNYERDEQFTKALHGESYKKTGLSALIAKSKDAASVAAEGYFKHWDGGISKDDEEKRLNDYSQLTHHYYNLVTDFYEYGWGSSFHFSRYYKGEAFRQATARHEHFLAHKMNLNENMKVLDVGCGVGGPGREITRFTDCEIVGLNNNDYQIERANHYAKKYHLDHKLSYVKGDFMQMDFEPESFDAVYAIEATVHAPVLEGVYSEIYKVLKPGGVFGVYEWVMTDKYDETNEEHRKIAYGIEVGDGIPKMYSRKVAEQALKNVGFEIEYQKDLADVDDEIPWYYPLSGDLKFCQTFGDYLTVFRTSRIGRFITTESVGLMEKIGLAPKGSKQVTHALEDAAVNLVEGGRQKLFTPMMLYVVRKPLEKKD
# [8] = tested on: [Candida] auris; test: Antifungal activity against Candida auris CBS12774 assessed as effect on cell structure at 1 ug/ml measured after 6 hrs by microscopy based analysis; format: functional, organism-based; conditions: Candidozyma auris, dose 1.0 µg/ml
# [9] = tested on: Candida albicans; test: Upregulation of NRG1 expression in Candida albicans SC5314 at 1 ug/ml incubated for 6 hrs by qPCR analysis; format: functional; conditions: dose 1.0 µg/ml
# [10] = tested on: Candida albicans; test: Upregulation of PDE2 gene level in Candida albicans SC5314 at 1 ug/ml incubated for 6 hrs by qPCR analysis; format: functional; conditions: dose 1.0 µg/ml
# [11] = tested on: Candida albicans; test: Antifungal activity against Candida albicans SC5314 assessed as inhibition of hyphae growth measured after 5 days cultured under YPD embedded agar medium and 10mM GlcNAc by microscopy based analysis; format: functional, organism-based; conditions: dose 0.25-1 µg/ml, time 5.0 day
# [12] = tested on: Candida albicans; test: Downregulation of ECE1 expression in Candida albicans SC5314 at 1 ug/ml incubated for 6 hrs by qPCR analysis; format: functional; conditions: dose 1.0 µg/ml
# [13] = tested on: Candida albicans; test: Downregulation of HWP1 expression in Candida albicans SC5314 at 1 ug/ml incubated for 6 hrs by qPCR analysis; format: functional; conditions: dose 1.0 µg/ml
# [14] = tested on: Candida albicans; test: Antifungal activity against Candida albicans SC5314 assessed as inhibition of hyphae growth measured after 30 passages; format: functional, organism-based
# [15] = tested on: [Candida] auris; test: Antifungal activity against Candida auris CBS12774 assessed as inhibition of hyphae formation at 1 ug/ml measured after 6 hrs by microscopy based analysis; format: functional, organism-based; conditions: Candidozyma auris, dose 1.0 µg/ml
# [16] = tested on: Candida albicans; test: Synergistic antifungal activity against Candida albicans SC5314 assessed as fractional inhibitory concentration index incubated for 24 hrs in presence of terbinafine by broth microdilution checkerboard assay; format: functional
# [17] = tested on: Candida albicans; test: Antifungal activity against Candida albicans SC5314 assessed as inhibition of hyphae growth measured after 5 days cultured under solid spider agar medium by microscopy based analysis; format: functional, organism-based; conditions: dose 0.25-1 µg/ml, time 5.0 day
# [18] = tested on: Candida albicans; test: Antifungal activity against Candida albicans SC5314 assessed as inhibition of hyphae growth measured after 5 days cultured under solid spider agar medium and 10mM GlcNAc by microscopy based analysis; format: functional, organism-based; conditions: dose 0.25-1 µg/ml, time 5.0 day
# [19] = tested on: Candida albicans; test: Antifungal activity against Candida albicans SC5314 assessed as inhibition of hyphae growth measured after 6 hrs cultured under RPMI1640 medium by microscopy based analysis; format: functional, organism-based; conditions: dose 0.25-1 µg/ml
# [20] = tested on: Candida parapsilosis; test: Antifungal activity against Candida parapsilosis CP1 assessed as inhibition of hyphae formation at 1 ug/ml measured after 6 hrs by microscopy based analysis; format: functional, organism-based; conditions: dose 1.0 µg/ml
# [21] = tested on: Candida albicans; test: Antifungal activity against Candida albicans SC5314 infected in Balb/C mouse candidiasis model assessed as filamentation defect at 0.5 % administered topically and measured after 72 hrs in presence of terbinafine by PAS staining based analysis; format: functional, organism-based
# [22] = tested on: Candida parapsilosis; test: Antifungal activity against Candida parapsilosis CP1 assessed as effect on cell size at 1 ug/ml measured after 6 hrs by microscopy based analysis; format: functional, organism-based; conditions: dose 1.0 µg/ml
structure (smiles),measurement,setting,value
Cc1c(-n2c(-c3ccc4ccccc4c3)cs/c2=N\c2ccccc2)c(=O)n(-c2ccccc2)n1C,Activity,[1],inactive
same,fractional inhibitory concentration index (FICI),[2],<0.1
same,EC50 at 48 h,[3],> 50 µg/mL
same,MIC,[4],> 128 µg/mL
same,EC50 at 48 h,[5],> 50 µg/mL
same,MIC80,[6],> 128 µg/mL
same,Activity,[7],Active
same,Activity,[8],inactive
same,Activity,[9],Active
same,Activity,[10],Active
same,Activity,[11],Dose-Dependent Effect
same,Activity,[12],Active
same,Activity,[13],Active
same,Activity,[14],Active
same,Activity,[15],Active
same,fractional inhibitory concentration index (FICI),[16],<0.1
same,Activity,[17],Dose-Dependent Effect
same,Activity,[18],Dose-Dependent Effect
same,Activity,[19],Dose-Dependent Effect
same,Activity,[20],Active
same,Activity,[21],Active
same,Activity,[22],inactive
